Measured values as given in patent publication EP4680608B1, “2,6-DIHYDRO-7H-PYRAZOLO[3,4-C]PYRIDIN-7-ONE DERIVATIVES AS ANTI-MALARIAL AGENTS” (MMV Medicines for Malaria Venture, priority 2024, dated 2025).
pEC50, pIC50: −log10 of the molar value.

Key:
P. falciparum 3D7 = assay: Asexual blood-stage growth inhibition assay, SYBR green method; type: cell-based; conditions: Plasmodium falciparum, 3D7, 72 h, ring-stage 3D7 parasites
Procedure: Asexual blood-stage EC50 assays. […] Compound stocks prepared in DMSO were plated using a Tecan D300e automated low volume liquid handler. Ring-stage 3D7 or Dd2 parasites (60 µL cells) (2% hematocrit, 0.5% parasitemia, final DMSO concentration 0.5%) were added to plates, incubated with compounds over a range of concentrations in technical triplicate for 72 h at 37 °C, 5% CO2, and then frozen (-80°C) overnight before analysis. […] Data were analyzed by non-linear regression using GraphPad Prism to determine the EC50 by fitting to the built-in equation (log(inhibitor) vs response-variable slope with four parameters).

P. vivax DHODH = P. vivax DHODH (Plasmodium vivax, UniProt A5K1N1); assay: DHODH inhibition, steady-state DCIP assay (PvDHODH); type: biochemical; conditions: recombinant PvDHODH, DCIP method, 25°C, 5 nM enzyme; read-out: P. vivax DHODH (IC50)
Description: (§1) DOI: 10.1074/jbc.M206854200).
(§2) Proteins were expressed and purified on a Pharmacia FPLC using HisTrap HP column chromatography followed by gel filtration chromatography on a Pharmacia HiLoad 16/600 Superdex 200 column, and protein concentration determined based on OD280 using the previously described extinction coefficients (Kokkonda et al., 2020, J Med Chem, 63 (9), 4929-4956. DOI: 10.1021/acs.jmedchem.0c00311). Purified proteins were >95% pure based on SDS-PAGE analysis.
(§3) DHODH activity was monitored in a steady-state assay using the 2,6-dichloroindophenol (DCIP) method at 25°C in assay buffer (100 mM HEPES, pH 8.0, 150 mM NaCl, 1% glycerol, 0.1% Triton X-100 reduced) plus substrates 20 µM CoQD, 200 µM DHO, 120 µM DCIP, and 5 nM enzyme as previously described (Malmquist et al, 2008, Biochemistry, 47 (8), 2466-2475. DOI: 10.1021/bi702218c).
(§4) Compound stocks were prepared at 10-100 mM in DMSO, and diluted working stocks in DMSO were generated as appropriate. Compounds were plated from DMSO stocks in 96 well plate format using a Tecan D300e digital dispenser to generate a 3-fold dilution series over a concentration range of 0.0003 -100 µM (or 30 µM), yielding a final DMSO concentration of 1% in the assay. The top concentration used in the dose response was determined by the initial DMSO stock concentrations:100 µM for 100 mM stocks, and 30 µM for 10 mM stocks. Triplicate rate data were collected at each inhibitor concentration. Inhibitory IC50 values were determined by fitting the data to log (inhibitor) vs response equation Y = bottom + (top - bottom)/(1 + 10A ((X - Log IC50))) in GraphPad Prism. DSM265 ^2 was plated as an assay control in all studies.

Human DHODH = biological target: T1, Human DHODH (Homo sapiens, UniProt Q02127); assay: DHODH inhibition, steady-state DCIP assay (human DHODH); type: biochemical; conditions: recombinant HsDHODH, DCIP method, 25°C, 5 nM enzyme; top concentration 100 µM or 30 µM
T1 construct: C-terminal His6-tagged HsDHODH residues 29-395 in pET-22b (start ^29MATGDE); His6 (C); made in house; host or cells: E. coli BL21-DE3 (phage-resistant)
Description: as §1, §2, §3, §4

P. falciparum DHODH = biological target: T2, P. falciparum DHODH (Plasmodium falciparum, UniProt Q08210); assay: DHODH inhibition, steady-state DCIP assay (PfDHODH); type: biochemical; conditions: recombinant PfDHODH, DCIP method, 25°C, 5 nM enzyme
T2 construct: His6 (N); made in house; host or cells: E. coli BL21-DE3 (phage-resistant)
Procedure: as §4, with “Prism.” for “Prism. DSM265 ^2 was plated as an assay control in all studies.”

T1 sequence (Q02127 29-395): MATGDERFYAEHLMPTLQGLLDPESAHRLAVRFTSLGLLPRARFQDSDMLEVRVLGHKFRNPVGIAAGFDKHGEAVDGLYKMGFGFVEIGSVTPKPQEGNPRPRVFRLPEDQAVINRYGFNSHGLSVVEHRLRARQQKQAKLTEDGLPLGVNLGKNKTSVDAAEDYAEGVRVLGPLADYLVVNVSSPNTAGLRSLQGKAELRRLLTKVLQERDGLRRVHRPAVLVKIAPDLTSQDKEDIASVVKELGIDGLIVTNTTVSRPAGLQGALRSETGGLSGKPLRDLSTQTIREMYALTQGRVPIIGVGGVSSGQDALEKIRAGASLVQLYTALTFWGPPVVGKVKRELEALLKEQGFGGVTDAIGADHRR
T2 sequence (Q08210 158-569): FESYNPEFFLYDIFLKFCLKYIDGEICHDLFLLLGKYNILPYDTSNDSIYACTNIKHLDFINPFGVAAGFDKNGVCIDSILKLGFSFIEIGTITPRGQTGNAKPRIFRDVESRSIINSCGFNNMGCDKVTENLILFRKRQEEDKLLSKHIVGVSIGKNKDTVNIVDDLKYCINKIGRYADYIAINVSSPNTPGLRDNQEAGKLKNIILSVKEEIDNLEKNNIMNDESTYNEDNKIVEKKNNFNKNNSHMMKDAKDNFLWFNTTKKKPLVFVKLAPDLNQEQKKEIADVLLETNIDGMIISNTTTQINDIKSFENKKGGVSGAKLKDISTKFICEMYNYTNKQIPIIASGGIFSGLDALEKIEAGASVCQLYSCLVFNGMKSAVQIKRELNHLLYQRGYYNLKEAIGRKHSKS
P. vivax DHODH, sequence (A5K1N1 entry or part of it): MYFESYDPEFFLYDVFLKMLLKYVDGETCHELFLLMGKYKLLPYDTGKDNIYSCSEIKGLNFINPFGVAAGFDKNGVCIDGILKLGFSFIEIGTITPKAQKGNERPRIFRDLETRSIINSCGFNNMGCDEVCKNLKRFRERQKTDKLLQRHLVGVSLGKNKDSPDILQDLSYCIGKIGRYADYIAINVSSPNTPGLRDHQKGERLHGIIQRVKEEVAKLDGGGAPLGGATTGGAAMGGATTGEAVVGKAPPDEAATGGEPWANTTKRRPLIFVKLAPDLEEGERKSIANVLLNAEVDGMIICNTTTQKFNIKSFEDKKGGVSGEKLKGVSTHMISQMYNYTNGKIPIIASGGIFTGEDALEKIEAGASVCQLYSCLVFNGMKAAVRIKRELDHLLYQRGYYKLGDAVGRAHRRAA

Compound | pEC50 (P. falciparum 3D7) | pIC50 (P. vivax DHODH) | pIC50 (Human DHODH) | pIC50 (P. falciparum DHODH)
CCn1ccc2c([C@](C)(O)c3ccc(C(F)(F)F)c(Cl)c3)n(C)nc2c1=O (single isomer, unassigned) [1-46] | 9.70 | 8.24 | 4.39 | 8.00
CCn1ccc2c([C@](O)(c3ccc(C(F)(F)F)nc3)C(C)C)n(C)nc2c1=O (single isomer, unassigned) [1-48] | 7.74 | 7.36 | < 4.00 | 7.09
CCn1ccc2c([C@@](O)(CC)c3ccc(C(F)(F)F)nc3)n(C)nc2c1=O (single isomer, unassigned) [1-50] | 8.82 | 7.57 | 4.34 | 7.27
CC[C@@](O)(c1cnc(C(F)(F)F)c(Cl)c1)c1c2cnn(C3CC3)c(=O)c2nn1C1CC1 (single isomer, unassigned) [2-1] | 7.92 | 8.00 | 5.64 | 7.54
CCn1nc2c(=O)n(C3CC3)ncc2c1[C@@](O)(CC)c1cnc(C(F)(F)F)c(Cl)c1 (single isomer, unassigned) [2-3] | 8.00 | 7.96 | 5.57 | 7.54
CC[C@@](O)(c1ccc(C(F)(F)F)c(C#N)c1)c1c2cnn(C3CC3)c(=O)c2nn1C (single isomer, unassigned) [2-5] | 8.89 | 7.72 | 5.32 | 7.72
Cn1nc2c(=O)n(C3CC3)ncc2c1[C@](O)(c1ccc(C(F)(F)F)c(C#N)c1)C1CC1 (single isomer, unassigned) [2-7] | 8.38 | 7.77 | < 4.52 | 7.64
Cn1nc2c(=O)n(C3CC3)ncc2c1[C@](O)(c1ccc(C(F)(F)F)c(Cl)c1)C1CC1 (single isomer, unassigned) [2-11] | 8.72 | 8.00 | < 4.52 | 8.02
CC[C@@](O)(c1ccc(C(F)(F)F)c(Cl)c1)c1c2cnn(C3CC3)c(=O)c2nn1C (single isomer, unassigned) [2-15] | 9.49 | 8.01 | 5.77 | 8.21
CC[C@@](O)(c1ccc(F)c(Cl)c1)c1c2cnn(C3CC3)c(=O)c2nn1C (single isomer, unassigned) [2-17] | 8.77 | 8.02 | 5.60 | 8.08
CCn1ncc2c([C@@](O)(CC)c3ccc(C(F)(F)F)c(Cl)c3)n(C)nc2c1=O (single isomer, unassigned) [2-19] | 9.46 | 8.54 | 4.96 | 8.16
Cn1nc2c(=O)n(C3CC3)cnc2c1[C@](C)(O)c1cnc(C(F)(F)F)c(Cl)c1 (single isomer, unassigned) [3-1] | 8.66 | 8.10 | < 4.52 | 7.68
Cn1nc2c(=O)n(C3CC3)cnc2c1[C@](O)(c1cnc(C(F)(F)F)c(Cl)c1)C1CC1 (single isomer, unassigned) [3-3] | 8.40 | 8.08 | < 4.52 | 7.66
CC[C@@](O)(c1ccc(C(F)(F)F)nc1)c1c2ncn(C3CC3)c(=O)c2nn1C (single isomer, unassigned) [3-7] | 8.80 | 7.26 | 4.85 | 7.57
Cn1nc2c(=O)n(C3CC3)cnc2c1[C@](O)(c1ccc(C(F)(F)F)nc1)C1CC1 (single isomer, unassigned) [3-9] | 7.92 | 7.23 | < 4.52 | 7.32
CCn1cnc2c([C@](C)(O)c3ccc(C(F)(F)F)c(C#N)c3)n(C)nc2c1=O (single isomer, unassigned) [3-11] | 9.28 | 8.03 | < 4.00 | 7.49
Cn1nc2c(=O)n(C3CC3)ccc2c1[C@](N)(c1cnc(C(F)(F)F)c(Cl)c1)C(F)(F)F (single isomer, unassigned) [4-1] | 8.59 | 7.89 | < 4.52 | 7.68
Cn1nc2c(=O)n(C3CC3)ccc2c1[C@](C)(N)c1ccc(C(F)(F)F)c(Cl)c1 (single isomer, unassigned) [4-4] | 9.21 | 8.05 | 4.82 | 7.92
CC[C@@](N)(c1ccc(C(F)(F)F)c(F)c1)c1c2ccn(C3CC3)c(=O)c2nn1C (single isomer, unassigned) [4-5] | 8.00 | 8.15 | 5.89 | 7.80
CC[C@@](N)(c1ccc(C(F)(F)F)c(Cl)c1)c1c2ccn(C3CC3)c(=O)c2nn1C (single isomer, unassigned) [4-8] | 8.96 | 8.21 | 6.00 | 8.03
CC[C@@](N)(c1cnc(C(F)(F)F)c(Cl)c1)c1c2ccn(C3CC3)c(=O)c2nn1C (single isomer, unassigned) [4-11] | 8.59 | 7.39 | 4.89 | 7.38
CCn1cc(C)c2c([C@H](N)c3ccc(C(F)(F)F)c(C#N)c3)n(C)nc2c1=O (single isomer, unassigned) [4-14] | 7.80 | 7.41 | < 4.00 | 7.08
Cn1nc2c(=O)n(C3CC3)ncc2c1[C@](N)(c1ccc(C(F)(F)F)c(Cl)c1)C1CC1 (single isomer, unassigned) [4-16] | 8.13 | 8.11 | 4.80 | 7.77
Cn1nc2c(=O)n(C3CC3)cnc2c1[C@](C)(N)c1ccc(C(F)(F)F)c(Cl)c1 (single isomer, unassigned) [4-20] | 9.36 | 8.08 | 4.70 | 8.09
CC[C@@](N)(c1ccc(F)c(Cl)c1)c1c2ncn(C3CC3)c(=O)c2nn1C (single isomer, unassigned) [4-22] | 8.39 | 7.70 | 5.34 | 7.64
Cn1nc2c(=O)n(C3CC3)cnc2c1[C@](N)(c1ccc(C(F)(F)F)c(Cl)c1)C1CC1 (single isomer, unassigned) [4-24] | 8.68 | 8.06 | 5.49 | 7.96
CC[C@@](N)(c1ccc(C(F)(F)F)c(Cl)c1)c1c2ncn(C3CC3)c(=O)c2nn1C (single isomer, unassigned) [4-26] | 9.04 | 8.28 | 5.85 | 8.02
CC[C@@](N)(c1cnc(C(F)(F)F)c(Cl)c1)c1c2ncn(C3CC3)c(=O)c2nn1C (single isomer, unassigned) [4-27] | 8.19 | 7.40 | < 4.52 | 7.33
Cn1nc2c(=O)n(C3CC3)cnc2c1[C@](O)(c1cnc(C(F)(F)F)c(Cl)c1)C(F)(F)F (single isomer, unassigned) [5-3] | 8.77 | 7.55 | < 4.52 | 7.74
Cn1nc2c(=O)n(C3CC3)ccc2c1[C@](O)(c1ccc(F)c(Cl)c1)C(F)(F)F (single isomer, unassigned) [5-9] | 9.28 | 8.01 | 5.04 | 7.85
